Reference: ChEMBL document CHEMBL3108664, “Macrocyclic drugs and clinical candidates: what can medicinal chemists learn from their properties?” (J Med Chem, 2014)
Blank lines part the entries; values can stand above or below the molecule they belong to.

What was measured:
[1] = Oral bioavailability in human; assay type: ADME, organism-based; settings: in vivo
[2] = Oral bioavailability in rat at 5 mg/kg; assay type: ADME, organism-based; settings: in vivo
[3] = Oral bioavailability in dog at 1 mg/kg; assay type: ADME, organism-based, Canis lupus familiaris; settings: in vivo
[4] = Oral bioavailability in mouse administered as bid; assay type: ADME, organism-based; settings: in vivo
[5] = Half life in human at 25 mg, po administered through fat rich diet; assay type: ADME, organism-based; settings: in vivo
[6] = Oral bioavailability in cancer patient at 75 mg, qd administered 5 days for every 2 weeks; assay type: ADME, organism-based; settings: human, in vivo
[7] = Apparent permeability across apical to basolateral side of human Caco2 cells at 5 uM after 120 mins by LC/MS/MS analysis; assay type: ADME, cell-based; settings: Caco-2
Homo sapiens = experiment: Oral bioavailability in human at 3 to 15 mg/day; assay type: ADME, organism-based; settings: in vivo

bioavailability [1]: 20%
Molecule: CO[C@H]1C[C@@H]2CC[C@@H](C)[C@@](O)(O2)C(=O)C(=O)N2CCCC[C@H]2C(=O)O[C@H]([C@H](C)C[C@@H]2CC[C@@H](OCCO)[C@H](OC)C2)CC(=O)[C@H](C)/C=C(\C)[C@@H](O)[C@@H](OC)C(=O)[C@H](C)C[C@H](C)/C=C/C=C/C=C/1C [EVEROLIMUS]

bioavailability [2]: 1% | bioavailability [3]: 13%
Molecule: C=C[C@@H]1C[C@]1(NC(=O)[C@@H]1C[C@@H]2CN1C(=O)[C@H](C(C)(C)C)NC(=O)O[C@@H]1C[C@H]1CCCCCc1nc3ccc(OC)cc3nc1O2)C(=O)NS(=O)(=O)C1CC1 [GRAZOPREVIR ANHYDROUS]

bioavailability [4]: 80%
Molecule: COc1cc2ncnc3c2cc1OCCCCCN(C)Cc1ccc(Br)cc1N3 [JNJ-26483327]

half-life [5]: 100 h
Molecule: CO[C@H]1/C=C/O[C@@]2(C)Oc3c(C)c(O)c4c(=O)c(c5oc6cc(N7CCN(CC(C)C)CC7)cc(O)c6nc-5c4c3C2=O)NC(=O)/C(C)=C\C=C\[C@H](C)[C@H](O)[C@@H](C)[C@@H](O)[C@@H](C)[C@H](OC(C)=O)[C@@H]1C [RIFALAZIL]

bioavailability [1]: 50%
Molecule: CO[C@H]1/C=C/O[C@@]2(C)Oc3c(C)c(O)c4c(O)c(c(/C=N/N5CCN(C)CC5)c(O)c4c3C2=O)NC(=O)/C(C)=C\C=C\[C@H](C)[C@H](O)[C@@H](C)[C@@H](O)[C@@H](C)[C@H](OC(C)=O)[C@@H]1C [RIFAMPIN]

bioavailability [1]: 70%
Molecule: CO[C@H]1/C=C/O[C@@]2(C)Oc3c(C)c(O)c4c(O)c(c(/C=N/N5CCN(C6CCCC6)CC5)c(O)c4c3C2=O)NC(=O)/C(C)=C\C=C\[C@H](C)[C@H](O)[C@@H](C)[C@@H](O)[C@@H](C)[C@H](OC(C)=O)[C@@H]1C [RIFAPENTINE]

bioavailability [1]: 15%
Molecule: C=CC[C@@H]1/C=C(\C)C[C@H](C)C[C@H](OC)[C@H]2O[C@@](O)(C(=O)C(=O)N3CCCC[C@H]3C(=O)O[C@H](/C(C)=C/[C@@H]3CC[C@@H](O)[C@H](OC)C3)[C@H](C)[C@@H](O)CC1=O)[C@H](C)C[C@@H]2OC [TACROLIMUS ANHYDROUS]

bioavailability [6]: 1.5%
Molecule: CO[C@H]1C[C@@H]2CC[C@@H](C)[C@@](O)(O2)C(=O)C(=O)N2CCCC[C@H]2C(=O)O[C@H]([C@H](C)C[C@@H]2CC[C@@H](OC(=O)C(C)(CO)CO)[C@H](OC)C2)CC(=O)[C@H](C)/C=C(\C)[C@@H](O)[C@@H](OC)C(=O)[C@H](C)C[C@H](C)/C=C/C=C/C=C/1C [TEMSIROLIMUS]

Papp A→B at 2 h, 5 µM [7]: 28 ×10⁻⁶ cm/s
Molecule: CN1C/C=C/CCOc2cccc(c2)-c2ccnc(n2)Nc2cccc(c2)C1 [ZOTIRACICLIB]

F (Homo sapiens): 60%
Molecule: IVERMECTIN
